O=C(O)COc1ccc(Cl)cc1
solubility (mole fraction)
Settings | 283.15 K | 288.15 K | 293.15 K | 298.15 K | 303.15 K | 308.15 K | 313.15 K | 318.15 K | 323.15 K
in 1,4-dioxane | – | 0.113 | 0.124 | 0.135 | 0.146 | 0.16 | 0.176 | 0.194 | 0.212
in acetonitrile | 0.00781 | 0.00938 | 0.0114 | 0.0134 | 0.0159 | 0.0198 | 0.0241 | 0.0298 | 0.0359
in ethanol | 0.0308 | 0.0347 | 0.0406 | 0.0472 | 0.0545 | 0.0643 | 0.0796 | 0.0962 | 0.114
in ethyl acetate | 0.0266 | 0.0303 | 0.036 | 0.0413 | 0.0468 | 0.0537 | 0.0637 | 0.0731 | 0.0827
in ethyl formate | 0.0139 | 0.0164 | 0.0193 | 0.0223 | 0.0254 | 0.0299 | 0.036 | 0.0423 | 0.0487
in isobutanol | 0.0146 | 0.0178 | 0.0224 | 0.0286 | 0.0365 | 0.0453 | 0.0558 | 0.0688 | 0.0843
in isopropanol | 0.0214 | 0.0267 | 0.0324 | 0.039 | 0.0476 | 0.0586 | 0.0703 | 0.0844 | 0.0997
in methyl acetate | 0.0285 | 0.0325 | 0.0379 | 0.0433 | 0.0496 | 0.0567 | 0.0659 | 0.0766 | 0.0882
in n-butanol | 0.0243 | 0.0282 | 0.0343 | 0.0415 | 0.0501 | 0.0604 | 0.0721 | 0.0855 | 0.101
in n-butyl acetate | 0.0218 | 0.0246 | 0.0289 | 0.0334 | 0.0387 | 0.0446 | 0.0514 | 0.0593 | 0.0682
in n-propanol | 0.0255 | 0.0292 | 0.0348 | 0.0415 | 0.0506 | 0.0618 | 0.0748 | 0.089 | 0.11
in n-propyl acetate | 0.0235 | 0.0268 | 0.0303 | 0.035 | 0.0398 | 0.0454 | 0.0524 | 0.0604 | 0.0698
in sec-butanol | 0.0224 | 0.0279 | 0.034 | 0.0413 | 0.0505 | 0.0617 | 0.0745 | 0.0888 | 0.107

Reference: BigSolDB 2.1
